The source of these data is US5219867A, “Platelet aggregation inhibitory agents” (priority 1992, dated 1993).

Experiment [1] concerns cytosolic ionized calcium in human platelets. The experiment is described as follows: Inhibition of collagen-induced rise in cytosolic ionized calcium (aequorin luminescence). It is filed as cell-based. The following applies: for IC50: 1mM [Ca2+]o (n = 4), read-out: Ica50 ± S.E. Collagen-induced (50% inhibition of collagen-induced rise in cytosolic ionized calcium). Here is the method:
Procedure for Cytosolic Ionized Calcium Determination. The basic procedure of Yamaguchi, et al. (Thromb. Res., Vol. 44, Pages 165-174, 1986) was followed. Blood was collected from six blood donors, aged 24-38 years, who had fasted overnight and affirmed abstinence from alcohol, caffeine and medications of any kind for a period of at least one week prior to donation. […] Platelets were collected (800 g, 15 min), resuspended in and washed (800 g, 15 min) with HEPES-buffered saline (140 mM NaCl, 2.7 mM KCl, 0.1% bovine albumin, 0.5% glucose, 3.8 mM HEPES, pH 7.6) with EGTA (5 mM) and PGE1 (1 μM). The platelet pellet was resuspended in 90 μl of the same buffer and added to 20μl of 3 mg/ml aequorin solution in a 1.5 ml Eppendorf centrifuge tube. Six 1 μl aliquots of DMSO were added at 90 second intervals with brief, gentle mixing on a Vortex mixer and the platelet suspension was incubated 2 minutes after the last addition. One ml of HEPES-buffered saline was added, gently mixed, and again incubated for 2 minutes. The platelets were pelleted (1000 g, 30 sec), resuspended in HEPES-buffered saline to which was added either 1 mM Mg Cl2, (calcium-free buffer) or 1 mM Mg Cl2 and 1 mM Ca Cl2 (calcium buffer), depending on the experiment. The platelet count was adjusted to 3-4×10^5 platelets/μl.
The Platelet Ionized Calcium Aggregometer (Chrono-Log Corp., Ltd., Havertown, Pa.) was used to obtain simultaneous aggregation and luminescence data under the following experimental conditions: (1) platelet suspension, 1 ml, was equilibrated at 37° C. with stirring at 1100 rpm; (2) 100 μl (1.2 μg) of fibrinogen was added; (3) the vehicle (95% ethanol) or the test compound in vehicle was added; (4) when needed, 10 μl of the desired concentration of EGTA was added 30 seconds prior to addition of the agonist; then (5) the agonist (Collagen, 5 μg or 20 μg) was added and the time noted. At one minute after addition of the agonist in Channel 1, a platelet sample containing fibrinogen in Channel 2 was lysed with 10 μl of a 1:1 solution of Triton X-100 (final concentration 0.005%) 10 mM CaCl2 (final concentration 0.5 mM). Treated and control […] data were corrected for time dependent decay of fluorescence using data from the untreated lysed controls.
Normally 4 compound-treated samples (at 4 different concentrations) interspersed with 3 control samples were evaluated at 4.5 minute intervals starting 18-23 minutes after the DMSO treatment. The Ia50 values were calculated as described earlier. The compound concentrations effecting 50% inhibition (Ica50) of collagen-induced cytosolic ionized calcium values was determined by linear regression analysis.
Compounds I-rac, (+)-I,(IC) and (-)-I(IA) were evaluated. The Ia50 (collagen-induced aggregation) and Ica50 (compound concentration required to inhibit by 50% the collagen-induced rise in cytosolic ionized calcium)values determined with platelet suspensions in HEPES-buffered saline containing 1.0 mM CaCl2 were as follows:
Collagen-stimulation of platelets suspended in media containing 1.0 mM of Ca^2+ (FIG. 13) or 1.0 mM (FIG. 14A) or 2.0 mM (FIG. 14B) EGTA (a calcium chelator) gave […] cytosolic ionized calcium peak (aequorin-indicated luminescence). Contrarily, two phases of Ca^2+ mobilization were observed when aequorin-loaded human platelets suspended in a medium containing 0.1 mM EGTA were stimulated with collagen (FIG. 14, designation D). The first corresponded to platelet shape change and the second peak to aggregation. […] The platelet suspension (1.0 ml) was pre-incubated with 1.0 μl of (A) 95% ethanol, (B) a solution of Compound I (14.59 μM) in 95% ethanol, or (C) a solution of Compound I (23.87 μM) in 95% ethanol. Collagen (20 μg) was added at time indicated by the arrows. Luminescence was again recorded at a gain of 0.5. […] Accordingly, the stereo-selective inhibitory properties of the compounds of the present invention appear to be mediated through the inhibition of [Ca^2+ ].

Experiment [2] relates to male ICR mice. The experiment is described as follows: Mouse antithrombotic assay (collagen-epinephrine thromboembolic death). The following applies: for ED50: ip, 30 min before i.v. collagen-epinephrine challenge, read-out: ED50 (protection from thromboembolic death). It is filed as in vivo. Here is the method:
The method employed is similar to Myers, et al's (Proc. Soc. Exp. Biol. Med., Vol. 183, Pages 86-91, 1986) modification of the procedure of DiMinno and Silver (J. Pharmacl. Exp. Therap., Vol. 225, Pages 57-60, 1983). Male ICR mice 25 g-35 g were used in this study. Collagenreagent Horm, containing 1 mg/ml of native collagen fibrils from equine tendons suspended in isotonic glucose solution of pH 2.7 was obtained from Horm -Chemie Momchem GMBH, Munchen, Germany; Epinephrine Injection, USP 1 mg/ml was from Abbott Laboratories, North Chicago, Ill.
Rac.I.2HBr was dissolved in physiological saline and (+)-I (I-C) was dissolved in saline at pH 6.5 at a concentration which yielded the desired dosage when 10 ml/kg of the compound solution was injected intraperitoneally (i.p.) to the mouse. Control mice received 10 ml/kg of the solvent/vehicle intraperitoneally.
Thirty (30) minutes after administration of test compound, the mouse was challenged with intravenous collagen-epinephrine suspension. The procedure is as follows: Fifteen (15) minutes after i.p. administration of test compound, the mouse was given 50-60 mg/kg of pentobarbital sodium (Nembutal). About 10-12 minutes later (when the mouse was anesthetized) the jugular vein was surgically exposed in preparation for the intravenous collagen-epinephrine injection.
Thirty (30) minutes after i.p. administration of the test compound (and about 15 minutes after i.p. Nembutal) the mouse's platelets were challenged with 0.00333 ml/gm (0.10 ml/30 gm mouse) of the intravenous collagen-epinephrine suspension into the jugular vein. [The collagen-epinephrine suspension contained 0.15 mg collagen fibrils and 0.018 mg of epinephrine per ml of the suspension]. The rate of injection for the collagen-epinephrine suspension was consistent from one mouse to the next.
Graded doses of the compound were administered to mice prior to the aggregation challenge. The ED50 was determined graphically from a Probit-log plot of percent of mice protected (Probit) by each dose (log scale) of the compound. […]

By ED50 is commonly meant the dose that gives a 50% effect, or the effect in half of the subjects.

Several values for one entry are separate records, joined by “and”; a condition that tells them apart may be missing. Equal entries are not always repeated. Structures can show the parent of a compound that is named as a salt. Where two headings read alike, the source gives them in different places.

For `CCN(CC)C(=O)C1CCCN(Cc2ccc(CN3CCCC(C(=O)N(CC)CC)C3)cc2)C1` (racemic) [Compound I, α-α'-Bis[3-(N,N-diethyl-carbamoyl)piperidino]-p-xylene dihydrobromide], in experiment [1] (0.1 mM EGTA, collagen 20 μg, Compound I 14.59 μM or 23.87 μM (FIG. 15)), the “Effect on platelet shape change peak and aggregation peak of Ca2+ mobilization” value is “inhibited both the platelet shape change peak and the aggregation peak”. In addition, the IC50 in experiment [1] (Homo sapiens, Platelet, collagen-induced) was 21.2 µM. The ED50 in experiment [2] was 104 mg/kg and 164 µmol/kg.

As for `CCN(CC)C(=O)C1CCCN(Cc2ccc(CN3CCCC(C(=O)N(CC)CC)C3)cc2)C1` (single isomer, unassigned) [IC, α-α'-Bis(3-N,N-diethylcarbamoyl)piperidino]-p-xylene dihydrobromide], in experiment [1] (collagen-induced, listed as IC (+)-I, dihydrobromide), the IC50 stood at 3.6 ± 1.2 µM. Besides, in experiment [1] (collagen-induced, Ca2+-containing medium), the “Potency in inhibiting the rise of cytosolic ionized calcium compared to racemic I, I-A and IB” value was “much more potent”. Further, the “Potency in protecting mice from thromboembolic death relative to racemic I.2HBr” value in experiment [2] (i.p.) was “approximately three times more potent”. In experiment [2], the 50% effective dose (ED50) was 33.5 mg/kg and 71.2 µmol/kg.
